Numbers after ± are expanded uncertainties.
Assays:
[1] = 101 kPa, Liquid; for speed of sound: Frequency=1.5 MHz, Sing-around technique in a fixed-path interferometer; for mass density: Vibrating tube method
[2] = refractive index (Na D-line) (dimensionless); details: 101 kPa, Liquid, Standard Abbe refractometry

CCCCO [butan-1-ol]
Details | mass density, [1] [kg/m3] | refractive index, [2] | speed of sound, [1] [m/s]
303.15 K | 802.01 ± 0.15 | 1.3948 ± 0.0004 | 1222.7 ± 1.5
308.15 K | 798.14 ± 0.15 | 1.3927 ± 0.0004 | 1206.3 ± 1.5
313.15 K | 794.22 ± 0.15 | 1.3907 ± 0.0004 | 1189.4 ± 1.5
318.15 K | 790.28 ± 0.15 | 1.3875 ± 0.0004 | 1172.8 ± 1.5
323.15 K | 786.29 ± 0.16 | 1.3848 ± 0.0004 | 1156.7 ± 1.5
